Patent publication US6265177A, “Enzyme assay for mutant firefly luciferase” (priority 1997, dated 2001)

Assays:
Type in all cases: biochemical
Details in all cases: 21° C., 20 mM Tricine pH 7.8, 470 μM D-luciferin, ATP 6.25-800 μM, crude cell extract
[1] = biological target: T1, Photinus pyralis luciferase mutant H245Q (His245Gln), SEQ ID NO: 6 (Photinus pyralis, UniProt P08659, H245Q); experiment: Luciferase assay of Km for MgATP, mutant H245Q
T1 construct: ID No. 6; made in house; host or cells: E. coli JM109, crude lysed cell extract, plasmid pPW601a
Method: (§1) SITE DIRECTED MUTAGENESIS: Three mutagenic oligonucleotides were used to create the mutations H245A, N and Q (Ala, Asn, or Gln--see Seq ID Nos. 2, 3 & 4). The equivalent wild-type sequence is shown at Seq ID No. 5. […] The mutagenesis was carried out in accordance with the kit instructions of kit supplied by Clontech laboratories Inc, Palo Alto, Calif. USA.
The amino acid sequence of H245Q is shown in Seq. ID No. 6.
(§2) CELL CULTURE AND EXTRACTION: E. coli JM109 transformants were grown to an OD600 =1.0. Aliquots of cells expressing mutant luciferases from plasmid pPW601a, were subjected to lysis as described in the Promega technical bulletin and the lysed extracts were then stored on ice prior to assay.
(§3) ASSAY OF Km OF MUTANT LUCIFERASES: luciferase assays were performed at 21° C. using 100 μl of assay buffer (20 mM Tricine pH 7.8 containing 2.0 mM MgSO4, 0.1 mM EDTA, 33 mM dithiotheitol, 470 μM D-luciferin and ATP in the concentration range 6.25-800 μM). Each assay contained 5-10 μl of crude cell extract.
(§4) Such plots kan be used to determine the Km.

[2] = biological target: Photinus pyralis luciferase thermostable mutant A215L (printed A21SL) (Photinus pyralis, UniProt P08659, A215L); experiment: Luciferase assay of Km for MgATP, thermostable mutant A215L
Method: as §2, §3, §4
*A215L is a thermostable mutant in which amino acid 215 is substituted with
lysine (see WO 96/22376 - SECRETARY OF STATE FOR DEFENCE).

[3] = biological target: T2, Photinus pyralis luciferase mutant H245A (His245Ala) (Photinus pyralis, UniProt P08659, H245A); experiment: Luciferase assay of Km for MgATP, mutant H245A
T2 construct: made in house; host or cells: E. coli JM109, crude lysed cell extract, plasmid pPW601a
Method: as §1, §2, §3, §4

[4] = biological target: T3, Photinus pyralis luciferase, recombinant wild type (r Wild Type), luc gene SEQ ID NO: 1 (Photinus pyralis, UniProt P08659); experiment: Luciferase assay of Km for MgATP, recombinant wild type
T3 construct: made in house; host or cells: E. coli JM109, crude lysed cell extract, plasmid pPW601a
Method: as §2, §3, §4

[5] = biological target: T4, Photinus pyralis luciferase mutant H245N (His245Asn) (Photinus pyralis, UniProt P08659, H245N); experiment: Luciferase assay of Km for MgATP, mutant H245N
T4 construct: made in house; host or cells: E. coli JM109, crude lysed cell extract, plasmid pPW601a
Method: as §1, §2, §3, §4

T2 sequence (P08659 whole entry H245A): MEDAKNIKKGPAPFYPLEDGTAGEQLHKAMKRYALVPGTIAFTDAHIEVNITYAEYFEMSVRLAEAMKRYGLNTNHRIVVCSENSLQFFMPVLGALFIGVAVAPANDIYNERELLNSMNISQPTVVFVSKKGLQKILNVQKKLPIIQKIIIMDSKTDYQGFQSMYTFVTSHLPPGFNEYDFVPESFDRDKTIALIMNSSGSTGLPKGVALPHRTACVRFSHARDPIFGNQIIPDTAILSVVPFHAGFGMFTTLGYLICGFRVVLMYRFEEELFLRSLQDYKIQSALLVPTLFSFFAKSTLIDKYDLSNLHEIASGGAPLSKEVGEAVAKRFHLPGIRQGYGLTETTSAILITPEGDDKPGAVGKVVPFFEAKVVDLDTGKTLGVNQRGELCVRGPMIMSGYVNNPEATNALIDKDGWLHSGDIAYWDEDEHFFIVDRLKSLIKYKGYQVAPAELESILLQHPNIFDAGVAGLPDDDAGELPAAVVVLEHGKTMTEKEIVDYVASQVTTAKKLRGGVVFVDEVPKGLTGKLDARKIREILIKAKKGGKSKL
T4 sequence (P08659 whole entry H245N): as the sequence (P08659 whole entry H245A) above, with A245N counted along it
T3 sequence (P08659 whole entry): as the sequence (P08659 whole entry H245A) above, with A245H counted along it
T1 sequence (P08659 whole entry H245Q): as the sequence (P08659 whole entry H245A) above, with A245Q counted along it
Sequence of Photinus pyralis luciferase thermostable mutant A215L (printed A21SL) (P08659 whole entry A215L): as the sequence (P08659 whole entry H245A) above, with A215L, A245H counted along it

With `Nc1ncnc2c1ncn2[C@@H]1O[C@H](COP(=O)(O)OP(=O)(O)OP(=O)(O)O)[C@@H](O)[C@H]1O` [MgATP] the Km [1] was 1340 µM, the Km [2] was 65 µM and the Km [3] was 442 µM. It also gave a Km [4] of 66 µM and a Km [5] of 623 µM.
